# Where two headings read alike, the source gives them in different places.
# How the values were obtained:
# [1] = target: T1, Protease, CTSG (Cathepsin G) (Homo sapiens, UniProt P08311); assay: Protease, CTSG (Cathepsin G) inhibition assay; format: biochemical; conditions: reference compound, concurrent run; read-out: Concurrent MIC IC50
# T1 sequence (P08311 21-255): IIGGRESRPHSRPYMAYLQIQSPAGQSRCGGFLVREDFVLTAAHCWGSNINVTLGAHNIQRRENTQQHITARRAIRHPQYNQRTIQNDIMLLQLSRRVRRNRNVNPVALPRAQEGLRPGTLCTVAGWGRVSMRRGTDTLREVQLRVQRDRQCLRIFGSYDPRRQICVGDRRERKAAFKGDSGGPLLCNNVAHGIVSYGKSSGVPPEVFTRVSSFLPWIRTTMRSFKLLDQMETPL
# [2] = target: T1, Protease, CTSG (Cathepsin G); conditions: reference compound, historical value; cited from earlier work
smiles,measurement,setting,value
CC(C)C[C@H](NC(=O)[C@@H](NC(=O)N[C@@H](Cc1ccccc1)C(=O)O)[C@@H]1CCN=C(N)N1)C(=O)N[C@H](C=O)Cc1ccccc1 [Chumostatin],IC50,[1],1220 nM
same,IC50,[2],2100 nM

# Reference: patent US20070154580A1, “Antiviral Morinda Citrifolia L. Based Formulations and Methods of Administration” (priority 2005, published 2007)
